Test results published in patent US8158828B2, “Nuclear receptor binding agents” (priority 2005, dated 2012).
“Also recorded” adds a separate entry of the source.

Key:
[1] = Metabolic stability in human liver microsomes; conditions: 1 μM substrate, 0.5 mg/mL microsomes
Experimental: Each substrate or reference control was dissolved at a concentration of 10 mM in DMSO, from which a 5 μM spiking solution was prepared by dilution in water. Substrates (1 μM) were incubated in the presence of human liver microsomes (Xenotech LLC, Kansas City Mo.) at 0.5 mg/mL fortified with an NADPH regenerating system at 37° C. and pH 7.4. The NADPH regenerating system consisted of glucose-6-phosphate dehydrogenase (1 units/mL) in 0.05M K2HPO4. Duplicate incubations were performed in 96-well polypropylene cluster tubes in a final volume of 250 μL per reaction. At 0, 2, 4, 6, 10, 30, and 60 minutes a stop solution (300 μL acetonitrile) was added to aliquots of the reaction mixture. Precipitated protein was removed by centrifugation (3000 rpm for 15 minutes) and the supernatants were transferred to clean 96-well plates for analysis.
The samples were injected onto a Phenomenex Luna hexylphenyl 50×2 mm i.d. 5 uM, column fitted with a guard column. An isocratic mobile phase consisting of 50% acetonitrile and 0.1% formic acid in water was used at a flow rate of 0.3 mL/min. The protonated molecular ion (M+H)^+ of the analyte was monitored by MDS/Sciex API 4000QTrap triple quadrupole mass spectrometer using electrospray positive mode ionization with a temperature of 500° C. and a spray voltage of 4000V. Total analysis time was 1.5 min per sample.
Metabolic stability was defined as the amount of substrate metabolized by the incubation with hepatic microsomes and expressed as a percentage of the initial amount of substrate (% remaining) based on peak area. Initial substrate concentration for each analyte was 1 μM. The initial peak area of each substrate was determined at time zero and metabolic stability was assessed based on the change in analyte peak area from time 0 min to a single fixed timepoint for each sample (2-60 min, representative timepoints are shown in Table 2 below).

[2] = test system: TRAP positive multinucleated osteoclasts; assay: TRAP positive multinucleated osteoclasts from bone marrow cells; assay type: cell-based, rat; conditions: RANKL and GMCSF, 12 days
Experimental: FIG. 7: Effect of the indicated compounds on TRAP positive multinucleated osteoclasts. Bone marrow cells from rat femur was cultured in Alpha MEM+10% csFBS without phenol red in the presence or absence of 30 ng/ml RANKL and 10 ng/ml GMCSF. The cells were treated for 12 days and were stained for tartarate resistant acid phosphatase activity (TRAP) and multinucleated osteoclasts were counted.
Bone marrow cells isolated from rat femur were cultured in Alpha MEM without phenol red+10% sterile FBS without phenol red in the presence or absence of […] RANKL and 10 ng/ml GMCSF. The cells were treated for 12 days were stained for tartarate resistant acid phosphatase activity (TRAP) positive multinucleated osteoclasts and were counted.

uterus = assay: In vivo estrogenic activity, uterine weight; set-up: species or system rat; conditions: female rats; for estrogenic activity in terms of uterine weight: compound alone
Experimental: Rats that were administered the vehicle alone served as controls.

ER-β = target: T1, ER-β (Rattus norvegicus, UniProt Q62986); assay: ER-β transactivation, ERE-LUC in COS or 293 cells; assay type: cell-based; conditions: COS or 293 cells
T1 construct: expressed in transfected cells; host or cells: COS or 293 cells
Experimental: FIG. 2: Effect of the indicated compounds on ER-β transactivation. COS or 293 cells plated in DME without phenol red+10% csFBS at 90,000 cells per well of a 24 well plate were transfected with 0.25 μg ERE-LUC, 0.02 μg CMV-LUC (Renilla) and 50 ng of ER-β by lipofectamine. Twenty four hours after transfection, the cells were treated as indicated in the figure, harvested 48 hrs after transfection and were assayed for firefly and renilla luciferase.
FIG. 6: Effect of the indicated compounds on ER-β transactivation. COS or 293 cells plated in DME without phenol red+10% csFBS at 90,000 cells per well of a 24 well plate were transfected with 0.25 μg ERE-LUC, 0.02 μg CMV-LUC (Renilla) and 50 ng of ER-β by lipofectamine. Twenty four hours after transfection, the cells were treated as indicated in the figure, harvested 48 hrs after transfection and assayed for firefly and renilla luciferase.
FIG. 10: Effect of the indicated compounds on ER-β transactivation. COS or 293 cells plated in DME+10% csFBS at 90,000 cells per well of a 24 well plate were transfected with 0.25 μg ERE-LUC, 0.02 μg CMV-LUC (Renilla) and 50 ng of ER-β by lipofectamine. Twenty four hours after transfection, the cells were treated as indicated in the figure, harvested 48 hrs after transfection and were assayed for firefly and renilla luciferase.
(§1) All the receptors were cloned from rat tissue into the PCR3.1 vector backbone. […] Cells were harvested 48 hrs after transfection, and assayed for firefly and Renilla luciferase activity.
as §1

ER-α = target: T2, ER-α (Rattus norvegicus, UniProt P06211); assay: ER-α transactivation, ERE-LUC in COS or 293 cells; assay type: cell-based; set-up: % estardiol activity, ER-α: dose or concentration left out as unconfirmed
T2 sequence (P06211 1-600): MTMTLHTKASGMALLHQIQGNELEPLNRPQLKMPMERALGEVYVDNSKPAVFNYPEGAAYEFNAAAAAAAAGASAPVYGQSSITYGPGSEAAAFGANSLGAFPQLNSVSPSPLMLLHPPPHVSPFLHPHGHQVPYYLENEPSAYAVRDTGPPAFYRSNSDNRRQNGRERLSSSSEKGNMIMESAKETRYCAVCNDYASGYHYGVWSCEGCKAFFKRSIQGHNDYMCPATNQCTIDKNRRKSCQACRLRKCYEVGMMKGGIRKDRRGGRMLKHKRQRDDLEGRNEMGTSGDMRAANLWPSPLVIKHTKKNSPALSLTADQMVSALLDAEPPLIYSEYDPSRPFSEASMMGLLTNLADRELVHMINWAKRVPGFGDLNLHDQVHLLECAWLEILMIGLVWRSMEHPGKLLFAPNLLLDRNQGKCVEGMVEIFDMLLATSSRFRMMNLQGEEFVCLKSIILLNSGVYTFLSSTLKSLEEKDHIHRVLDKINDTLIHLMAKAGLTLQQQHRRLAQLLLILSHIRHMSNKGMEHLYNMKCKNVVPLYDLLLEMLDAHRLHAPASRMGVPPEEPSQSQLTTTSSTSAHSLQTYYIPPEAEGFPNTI
Experimental: FIG. 1: Effects of the indicated compounds on ER-α transactivation. COS or 293 cells plated in DME without phenol red+10% charcoal stripped fetal bovine serum (csFBS) at 90,000 cells per well of 24 well plates were transfected with 0.25 μg ERE-LUC, 0.02 μg CMV-LUC (Renilla) and 25 ng of ER-α by lipofectamine. Twenty four hours after transfection, the cells were treated as indicated in the figure, harvested 48 hrs after transfection and were assayed for firefly and renilla luciferase.
FIG. 5: Effect of the indicated compounds on ER-α transactivation. COS or 293 cells plated in DME without phenol red+10% csFBS at 90,000 cells per well of a 24 well plate were transfected with 0.25 μg ERE-LUC, 0.02 μg CMV-LUC (Renilla) and […] of ER-α by lipofectamine. Twenty four hours after transfection, the cells were treated as indicated in the figure, harvested 48 hrs after transfection and were assayed for firefly and renilla luciferase.
FIG. 9: Effect of the indicated compounds on ER-α transactivation. COS or 293 cells plated in DME without phenol red+10% csFBS per well of a 24 well plate were transfected with 0.25 μg ERE-LUC, 0.02 μg CMV-LUC (Renilla) and 25 ng of ER-α by lipofectamine. Twenty four hours after transfection, the cells were treated as indicated in the figure, harvested 48 hrs after transfection and were assayed for firefly and renilla luciferase.
Also 25 ng of ER-α (FIGS. 1, 5, and 9), 50 ng of ER-β (FIGS. 2, 6 and 10) or 12.5 ng of AR (FIG. 3) were introduced by lipofectamine. All the receptors were cloned from rat tissue into the PCR3.1 vector backbone. […] Cells were harvested 48 hrs after transfection, and assayed for firefly and Renilla luciferase activity.
Also 25 ng of ER-α), 50 ng of ER-β or 12.5 ng of AR were introduced by lipofectamine. All the receptors were cloned from rat tissue into the PCR3.1 vector backbone. […] Cells were harvested 48 hrs after transfection, and assayed for firefly and Renilla luciferase activity.

[3] = test system: pS2 (gene encoding the trefoil peptides) in MCF-7 cells; assay: pS2 gene expression in MCF-7 cells (realtime RT-PCR); assay type: cell-based; conditions: 16 hrs
Experimental: MCF-7 cells were plated at 500,000 cells per well of a 6 well plate. RNA was isolated and the message levels of pS2 (gene encoding the trefoil peptides) measured and normalized to 18S ribosomal RNA by realtime polymerase chain reaction (rtPCR).
FIG. 11: Agonistic activity of the indicated compounds in MCF-7 cells. MCF-7 cells were plated at 500,000 cells per well of a 6 well plate. RNA was isolated and the message levels of pS2 gene measured and normalized to 18S ribosomal RNA by realtime rtPCR.
MCF-7 cells were plated at 500,000 cells per well of a 6 well plate. The cells were serum starved for 3 days and then were treated as above for 16 hrs. RNA was isolated and gene expression levels assessed by realtime RT-PCR, following normalization to 18S ribosomal RNA.

PC-3 cells = assay: Androgen independent prostate cancer cell growth; assay type: cell-based; conditions: for PC-3 growth inhibition, qualitative grading: in vitro, data not shown; for inhibition at 10 µM: Homo sapiens, PC-3, 72 hrs
Experimental: PC-3 cells were plated in RPMI+10% csFBS at 6000 cells per well of a 96 well plate. Medium was changed to RPMI+1% csFBS without phenol red and then treated for 72 hrs with increasing concentrations of SERMs.
The prostate cancer cell line PC-3 was plated in RPMI+10% csFBS at 6000 cells per well of a 96 well plate. Medium was changed to RPMI+1% csFBS without phenol red and cells were treated for 72 hrs with increasing concentrations of SERMs.
PC-3 growth inhibition was determined qualitatively, in vitro, and represented as a grading system based on the ability of the SERMs to inhibit growth. The number −4 is for compounds that induced 100% growth inhibition at 1 uM, −3 for compounds that inhibit growth by about 75-90%, −2 for about 50-70% and −1 for inhibition less than 50% growth.

T1 sequence (Q62986 whole entry): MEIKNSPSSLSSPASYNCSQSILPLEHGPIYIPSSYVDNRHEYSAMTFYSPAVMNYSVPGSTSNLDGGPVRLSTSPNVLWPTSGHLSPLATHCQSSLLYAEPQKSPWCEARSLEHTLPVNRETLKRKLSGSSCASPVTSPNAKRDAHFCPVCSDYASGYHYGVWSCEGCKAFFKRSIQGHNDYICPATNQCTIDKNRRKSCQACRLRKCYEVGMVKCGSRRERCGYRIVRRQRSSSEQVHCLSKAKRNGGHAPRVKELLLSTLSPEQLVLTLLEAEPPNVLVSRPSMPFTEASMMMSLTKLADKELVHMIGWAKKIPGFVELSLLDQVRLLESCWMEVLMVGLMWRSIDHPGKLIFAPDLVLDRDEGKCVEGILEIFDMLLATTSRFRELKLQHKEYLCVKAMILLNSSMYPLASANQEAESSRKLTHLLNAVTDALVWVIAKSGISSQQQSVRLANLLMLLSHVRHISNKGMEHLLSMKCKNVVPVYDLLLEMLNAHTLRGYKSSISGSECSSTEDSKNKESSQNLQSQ

## O=C(c1ccc(O)cc1)N(c1ccc(O)cc1)c1ccc(O)cc1 [Compound 3a, 4-hydroxy-N,N-bis-(4-hydroxyphenyl)-benzamide]
[1]; 0 min
  % Remaining 0 min: 100%
[1]; 10 min
  % Remaining 10 min: 140%
[1]; 30 min
  % Remaining 30 min: 118%
[1]; 60 min
  % Remaining 60 min: 103%
[2]
  osteoclast differentiation / osteoclast activity: suppressed osteoclasts
uterus
  estrogenic activity in terms of uterine weight: exhibited estrogenic activity, in vivo
ER-β
  ER-β LUC expression, compound alone: most potent in stimulating ER-β
ER-α
  % estardiol activity, ER-α: 49.5%

## O=C(c1cccc(O)c1)N(c1ccccc1)c1ccccc1 [Compound 3f, 3-hydroxy-N,N-diphenyl-benzamide]
uterus
  estrogenic activity in terms of uterine weight: exhibited estrogenic activity, in vivo
[3]
  pS2 expression: increased pS2 expression levels

## O=C(c1ccccc1)N(c1ccccc1)c1ccc(OCCN2CCCCC2)cc1 [Compound 4b, N-(phenyl)-N-[4-(2-piperidin-1-ylethoxy)-phenyl]-benzamide]
PC-3 cells
  PC-3 growth inhibition, qualitative grading: −1 (−1 for inhibition less than 50% growth)

## Cl.O=C(c1ccc(OCCN2CCCCC2)cc1)N(c1ccccc1)c1ccc(O)cc1 [Compound 4e, N-(4-hydroxyphenyl)-N-phenyl-[4-(2-piperidin-1-ylethoxy)]-benzamide hydrochloride]
PC-3 cells
  PC-3 growth inhibition, qualitative grading: −1 (−1 for inhibition less than 50% growth)
uterus
  estrogenic activity in terms of uterine weight: exhibited no estrogenic, or anti-estrogenic activity in uterus

## O=C(c1ccc(OCCN2CCCCC2)cc1)N(c1ccc(O)cc1)c1ccc(F)cc1 [Compound 4g, N-(4-fluorophenyl)-N-[4-hydroxyphenyl]-[4-(2-piperidin-1-ylethoxy)]-benzamide]
uterus
  estrogenic activity in terms of uterine weight: exhibited estrogenic activity, in terms of increased uterine weight; also recorded: exhibited estrogenic activity, in vivo
uterus; with ICI-182,780
  uterine weight increase, with ICI-182,780: ICI-182,780 reversed 4a and 4g effects on uterine weight increase
uterus; with estrogen
  uterine weight, coadministered with estrogen: an increase in uterine weight was observed

## Cl.Cl.O=C(c1ccc(OCCN2CCCCC2)cc1)N(c1ccc(F)cc1)c1ccc(OCCN2CCCCC2)cc1 [Compound 4r, N-(4-fluorophenyl)-N-[4-(2-piperidin-1-ylethoxy)-phenyl]-[4-(2-piperidin-1-yl-ethoxy)]-benzamide dihydrochloride]
PC-3 cells
  inhibition at 10 µM: 100%
  PC-3 growth inhibition, qualitative grading: −4 (The number −4 is for compounds that induced 100% growth inhibition at 1 uM)

## Cl.Cl.O=C(c1ccc(OCCN2CCCCC2)cc1)N(c1ccccc1)c1ccc(OCCN2CCCCC2)cc1 [Compound 4u, N-[4-(2-piperidin-1-ylethoxy)-phenyl]-N-phenyl-[4-(2-piperidin-1-ylethoxy)]-benzamide dihydrochloride]
PC-3 cells
  inhibition at 10 µM: 100%
  PC-3 growth inhibition, qualitative grading: −3 (−3 for compounds that inhibit growth by about 75-90%)
ER-α
  % estardiol activity, ER-α: 12.8%
